From patent US10196403B2, “Compounds and compositions and uses thereof” (Sunovion Pharmaceuticals Inc., priority 2016, dated 2019) come the findings set out here.

This assay relates to mice. Briefly: Neuropharmacological Assay (SmartCube). The class given is in vivo. The conditions noted are these: for minimal effective dose: Mus musculus, read-out: POTENCY (minimal effective dose, MED); for AD: ADHD (SmartCube probability) / AG: analgesic (SmartCube probability) / AX: anxiolytic (SmartCube probability) / CE: cognitive enhancer (SmartCube probability) / DP: anti-depressant (SmartCube probability) / MS: mood stabilizer (SmartCube probability) / PS: anti-psychotic (SmartCube probability) / SD: sedative hypnotic (SmartCube probability) / UN: uncharacterized CNS activity (SmartCube probability): mice, i.p. 15 min before test, most efficacious dose(s) of 3 doses. From the text:
Neuropharmacological Assay (SmartCube™)
Neurosci. 2011 Sep. 9; 5:103 (doi: 10.3389/fnins.2011.00103) (“Roberds”). As reported in Roberds, because psychiatric diseases generally result from disorders of cell-cell communication, circuitry, intact systems are useful in detecting improvement in disease-relevant endpoints. These endpoints are typically behavioral in nature, often requiring human observation and interpretation. To facilitate testing of multiple compounds for behavioral effects relevant to psychiatric disease, PsychoGenics, Inc. (Tarrytown, N.Y., “PGI”) developed SmartCube™, an automated system in which behaviors of compound-treated mice are captured by digital video and analyzed with computer algorithms. (D. Brunner et al., Drug Discov. Today 2002, 7:S107-S112). PGI Analytical Systems uses data from SmartCube™ to compare the behavioral signature of a test compound to a database of behavioral signatures obtained using a large set of diverse reference compounds. (The composition of the database as well as validation of the method is further described in Roberds). In this way, the neuropharmacological effects of a test compound can be predicted by similarity to major classes of compounds, such as antipsychotics, anxiolytics and antidepressants.
The SmartCube™ system produces an activity signature indicating the probability that the activity of the test compound at the administered dose matches a given class of neuropharmacological agents. (See, e.g., Roberds, FIGS. 2 and 3). The test compound is simultaneously compared against multiple classes of agents; thus, a separate probability is generated for each behavioral effect measured (e.g., anxiolytic activity, analgesic activity, etc.). In the table below, these probabilities are reported for each behavioral effect measured as follows:
where LOQ is the limit of quantification.
Provided compounds were dissolved in a mixture of Pharmasolve™ (N-methyl-2-pyrrolidone), polyethylene glycol and propylene glycol, and were injected i.p. 15 min. before the behavioral test. For each compound, injections were administered at 3 different doses. For each behavioral effect measured, results for the most efficacious dose(s) are presented. In the table below, DP: anti-depressant; AX: anxiolytic; SD: sedative hypnotic; PS: anti-psychotic; MS: mood stabilizer; AD: ADHD; CE: cognitive enhancer; AG: analgesic; UN: uncharacterized CNS activity.
The potency of many of the compounds in the table was also determined in the SmartCube™ system. Test compounds were routinely examined at dose levels of 0.3, 1, 3 10 and 30 mg per kg (mpk), although the dose range was increased or decreased if necessary to obtain a full dose response curve. A compound's minimal effective dose (MED) is a measure of the compounds potency. The MED was defined as the dose (in mpk) having 50% or more total activity in SmartCube.

[1] abbreviates: MED = dose having 50% or more total activity in SmartCube.

Like-named read-outs stand apart in the source and are kept apart here. Bounds are passed on as bounds.

By minimal effective dose is commonly meant the lowest level tested that produced the effect sought. Take `CNC[C@@H]1OCCc2c(O)cc3c(c21)OCO3` (single isomer, unassigned) [Example 103]: the “AD: ADHD (SmartCube probability)” value was “+ (LOQ≤ + <5%)”, the “AG: analgesic (SmartCube probability)” value is “+ (LOQ≤ + <5%)”, the “AX: anxiolytic (SmartCube probability)” value was “+ (LOQ≤ + <5%)” and the “CE: cognitive enhancer (SmartCube probability)” value (shortened to “CE: cognitive enhancer”) is “+ (LOQ≤ + <5%)”. The “DP: anti-depressant (SmartCube probability)” value (from here on “DP: anti-depressant”) is on record as “+ (LOQ≤ + <5%)”, the “MS: mood stabilizer (SmartCube probability)” value (from here on “MS: mood stabilizer”) is given as “+ (LOQ≤ + <5%)”, the “PS: anti-psychotic (SmartCube probability)” value (from here on “PS: anti-psychotic”) was “+ (LOQ≤ + <5%)” and the “SD: sedative hypnotic (SmartCube probability)” value (“SD: sedative hypnotic” for short) is “+ (LOQ≤ + <5%)”. Besides, the “UN: uncharacterized CNS activity (SmartCube probability)” value (“UN: uncharacterized CNS activity” below) is listed as “+ (LOQ≤ + <5%)”. Under setting [1], the minimal effective dose is above 30 mg/kg.

Turning to `CNC[C@H]1OCCc2c(O)cc3c(c21)OCO3` (single isomer, unassigned) [Example 104], the “AD: ADHD (SmartCube probability)” value is on record as “+ (LOQ≤ + <5%)”, the “AG: analgesic (SmartCube probability)” value is reported as “+ (LOQ≤ + <5%)”, the “AX: anxiolytic (SmartCube probability)” value is “+++ (25%≤ +++ <50%)” and the “CE: cognitive enhancer” value was “++ (5%≤ ++ <25%)”. Further, the “DP: anti-depressant” value was “++++ (50%≤ ++++)”, the “MS: mood stabilizer” value is recorded as “+ (LOQ≤ + <5%)”, the “PS: anti-psychotic” value is given as “+ (LOQ≤ + <5%)” and the “SD: sedative hypnotic” value is recorded as “++ (5%≤ ++ <25%)”. Further, the “UN: uncharacterized CNS activity” value is listed as “++ (5%≤ ++ <25%)”. Moreover, under setting [1], the minimal effective dose was below 3 mg/kg.

On to `CNC[C@@H]1OC[C@@H](O)c2ccc3c(c21)OCO3` (single isomer, unassigned) [Example 111], for which the “AD: ADHD (SmartCube probability)” value was “+ (LOQ≤ + <5%)”, the “AG: analgesic (SmartCube probability)” value is listed as “+ (LOQ≤ + <5%)”, the “AX: anxiolytic (SmartCube probability)” value was “++ (5%≤ ++ <25%)” and the “CE: cognitive enhancer” value is recorded as “+ (LOQ≤ + <5%)”. The “DP: anti-depressant” value is given as “++++ (50%≤ ++++)”, the “MS: mood stabilizer” value is listed as “+ (LOQ≤ + <5%)”, the “PS: anti-psychotic” value is listed as “++ (5%≤ ++ <25%)” and the “SD: sedative hypnotic” value is given as “+ (LOQ≤ + <5%)”. In addition, the “UN: uncharacterized CNS activity” value is “+ (LOQ≤ + <5%)”. In addition, under setting [1], the minimal effective dose was in the range of 10 to 30 mg/kg.

As for `CNC[C@H]1OC[C@H](O)c2ccc3c(c21)OCO3` (single isomer, unassigned) [Example 112], the “AD: ADHD (SmartCube probability)” value is “+ (LOQ≤ + <5%)”, the “AG: analgesic (SmartCube probability)” value was “+ (LOQ≤ + <5%)”, the “AX: anxiolytic (SmartCube probability)” value is reported as “++ (5%≤ ++ <25%)” and the “CE: cognitive enhancer” value was “+ (LOQ≤ + <5%)”. In addition, the “DP: anti-depressant” value was “++ (5%≤ ++ <25%)”, the “MS: mood stabilizer” value is on record as “+ (LOQ≤ + <5%)”, the “PS: anti-psychotic” value is “+ (LOQ≤ + <5%)” and the “SD: sedative hypnotic” value is reported as “+ (LOQ≤ + <5%)”. For the same molecule, the “UN: uncharacterized CNS activity” value was “+ (LOQ≤ + <5%)”. Also, the minimal effective dose under setting [1] is above 30 mg/kg.

In the case of `CNC[C@H]1OC[C@@H](O)c2ccc3c(c21)OCO3` (single isomer, unassigned) [Example 113], the “AD: ADHD (SmartCube probability)” value is “+ (LOQ≤ + <5%)”, the “AG: analgesic (SmartCube probability)” value is “+ (LOQ≤ + <5%)”, the “AX: anxiolytic (SmartCube probability)” value is “++ (5%≤ ++ <25%)” and the “CE: cognitive enhancer” value was “+ (LOQ≤ + <5%)”. Further, the “DP: anti-depressant” value was “+ (LOQ≤ + <5%)”, the “MS: mood stabilizer” value is on record as “+ (LOQ≤ + <5%)”, the “PS: anti-psychotic” value is “+ (LOQ≤ + <5%)” and the “SD: sedative hypnotic” value is given as “+ (LOQ≤ + <5%)”. The “UN: uncharacterized CNS activity” value was “+ (LOQ≤ + <5%)”. Moreover, the minimal effective dose under setting [1] is above 30 mg/kg.

Take `CNC[C@@H]1OC[C@H](O)c2ccc3c(c21)OCO3` (single isomer, unassigned) [Example 114]: the “AD: ADHD (SmartCube probability)” value is given as “+ (LOQ≤ + <5%)”, the “AG: analgesic (SmartCube probability)” value is “+ (LOQ≤ + <5%)”, the “AX: anxiolytic (SmartCube probability)” value was “++ (5%≤ ++ <25%)” and the “CE: cognitive enhancer” value is listed as “+ (LOQ≤ + <5%)”. For the same molecule, the “DP: anti-depressant” value is reported as “+ (LOQ≤ + <5%)”, the “MS: mood stabilizer” value is on record as “+ (LOQ≤ + <5%)”, the “PS: anti-psychotic” value is “++ (5%≤ ++ <25%)” and the “SD: sedative hypnotic” value is reported as “+ (LOQ≤ + <5%)”. Besides, the “UN: uncharacterized CNS activity” value was “+++ (25%≤ +++ <50%)”. Under setting [1], the minimal effective dose fell in the range of 10 to 30 mg/kg.

Regarding `CNC[C@H]1OCCc2cc3c(cc21)OCO3` (stereo in doubt) [Example 5, (S)-1-(7,8-dihydro-5H-[1,3]dioxolo[4,5-g]isochromen-5-yl)-N-methylmethanamine], the “AD: ADHD (SmartCube probability)” value was “+ (LOQ≤ + <5%)”, the “AG: analgesic (SmartCube probability)” value is given as “++ (5%≤ ++ <25%)”, the “AX: anxiolytic (SmartCube probability)” value is listed as “++ (5%≤ ++ <25%)” and the “CE: cognitive enhancer” value is reported as “+ (LOQ≤ + <5%)”. The “DP: anti-depressant” value is “+ (LOQ≤ + <5%)”, the “MS: mood stabilizer” value is listed as “+ (LOQ≤ + <5%)”, the “PS: anti-psychotic” value is reported as “+ (LOQ≤ + <5%)” and the “SD: sedative hypnotic” value is on record as “+ (LOQ≤ + <5%)”. The “UN: uncharacterized CNS activity” value is reported as “+ (LOQ≤ + <5%)”. Further, the minimal effective dose under setting [1] was above 30 mg/kg.

As to `CNC[C@@H]1OCCc2cc3c(cc21)OCO3` (stereo in doubt) [Example 6, (R)-1-(7,8-dihydro-5H-[1,3]dioxolo[4,5-g]isochromen-5-yl)-N-methylmethanamine], the “AD: ADHD (SmartCube probability)” value is “+ (LOQ≤ + <5%)”, the “AG: analgesic (SmartCube probability)” value is recorded as “+ (LOQ≤ + <5%)”, the “AX: anxiolytic (SmartCube probability)” value was “++ (5%≤ ++ <25%)” and the “CE: cognitive enhancer” value is on record as “+ (LOQ≤ + <5%)”. Moreover, the “DP: anti-depressant” value was “+ (LOQ≤ + <5%)”, the “MS: mood stabilizer” value is “++ (5%≤ ++ <25%)”, the “PS: anti-psychotic” value is reported as “++ (5%≤ ++ <25%)” and the “SD: sedative hypnotic” value is on record as “+ (LOQ≤ + <5%)”. The “UN: uncharacterized CNS activity” value is “++++ (50%≤ ++++)”. Besides, under setting [1], the minimal effective dose fell in the range of 10 to 30 mg/kg.

On to `CNC[C@H]1OCCc2ccc3c(c21)OCO3` [Example 1, (S)-1-(6,9-dihydro-7H-[1,3]dioxolo[4,5-h]isochromen-9-yl)-N-methylmethanamine], for which the minimal effective dose is below 3 mg/kg, the “AD: ADHD (SmartCube probability)” value is “+ (LOQ≤ + <5%)”, the “AG: analgesic (SmartCube probability)” value is given as “+ (LOQ≤ + <5%)” and the “AX: anxiolytic (SmartCube probability)” value was “++ (5%≤ ++ <25%)”. In addition, the “CE: cognitive enhancer” value is “+ (LOQ≤ + <5%)”, the “DP: anti-depressant” value is reported as “++++ (50%≤ ++++)”, the “MS: mood stabilizer” value was “+ (LOQ≤ + <5%)” and the “PS: anti-psychotic” value is “++ (5%≤ ++ <25%)”. For the same molecule, the “SD: sedative hypnotic” value is “++ (5%≤ ++ <25%)” and the “UN: uncharacterized CNS activity” value is reported as “+ (LOQ≤ + <5%)”.
